According to ChEMBL document CHEMBL1201862, “PubChem BioAssay data set” (2004):
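Test compounds were applied to cells in 96-well plates for 48 hours at 5 doses. GI50: concentration for 50% inhibition of growth.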 Active and inactive are the calls of the source. Cut-off read from the data, not from the text of the source: active = GI50 up to about 1.1 µM and inactive = higher.

Key:
Assay in all cases: DTP human tumour cell line panel, 48 h
SK-OV-3 = system: SK-OV-3
MCF7 = system: MCF7
MDA-MB-435 = system: MDA-MB-435
SK-MEL-5 = system: SK-MEL-5
A549 = system: A549
Malme-3M = system: Malme-3M
MDA-MB-231 = system: MDA-MB-231
HT-29 = system: HT-29
CCRF-CEM = system: CCRF-CEM
U-251 = system: U-251
SF-539 = system: SF-539
MOLT-4 = system: MOLT-4
RPMI-8226 = system: RPMI-8226
KM12 = system: KM12
SK-MEL-2 = system: SK-MEL-2
NCI-H522 = system: NCI-H522
K562 = system: K562
LOX IMVI = system: LOX IMVI
SF-268 = system: SF-268
A498 = system: A498

Measured: GI50

COC(=O)/C(=C\Nc1cccc(C)n1)S(=O)(=O)c1ccc(C)cc1
inactive: SK-OV-3 > 100 µM | MCF7 68.2 µM | MDA-MB-435 39 µM | SK-MEL-5 36.8 µM | A549 60 µM | Malme-3M > 100 µM | MDA-MB-231 64.3 µM | HT-29 47.4 µM | CCRF-CEM 37.8 µM | U-251 73.3 µM | SF-539 52.4 µM | MOLT-4 28.6 µM | RPMI-8226 > 100 µM | KM12 35.5 µM | SK-MEL-2 33.4 µM | NCI-H522 66.4 µM | K562 21.1 µM | LOX IMVI 79.4 µM | SF-268 96.2 µM

CC(CO)CCNc1ncnc2c1ncn2CCC(=O)OC(C)(C)C (stereo not given)
inactive: SK-OV-3 > 100 µM | MCF7 > 100 µM | MDA-MB-435 > 100 µM | SK-MEL-5 > 100 µM | A549 > 100 µM | Malme-3M > 100 µM | MDA-MB-231 > 100 µM | HT-29 > 100 µM | A498 > 100 µM | CCRF-CEM > 100 µM | SF-539 > 100 µM | MOLT-4 > 100 µM | RPMI-8226 > 100 µM | KM12 > 100 µM | NCI-H522 > 100 µM | K562 > 100 µM | LOX IMVI > 100 µM | SF-268 > 100 µM

Cc1nc(C)c(N2CCN(CN)CC2)c(O)n1
inactive: SK-OV-3 > 100 µM | MCF7 > 100 µM | MDA-MB-435 > 100 µM | SK-MEL-5 > 100 µM | A549 > 100 µM | Malme-3M > 100 µM | MDA-MB-231 > 100 µM | HT-29 > 100 µM | A498 > 100 µM | CCRF-CEM > 100 µM | U-251 56.8 µM | SF-539 > 100 µM | MOLT-4 > 100 µM | RPMI-8226 > 100 µM | KM12 > 100 µM | NCI-H522 > 100 µM | K562 > 100 µM | LOX IMVI > 100 µM | SF-268 > 100 µM

Cc1cccc2cc3c(ccc4ccccc43)c[n+]12
inactive: MCF7 13.5 µM | MDA-MB-435 33.4 µM | SK-MEL-5 5.65 µM | A549 5.86 µM | Malme-3M 1.77 µM | MDA-MB-231 47.5 µM | HT-29 24.7 µM | CCRF-CEM 15.5 µM | U-251 2.99 µM | SF-539 16.7 µM | MOLT-4 4.89 µM | RPMI-8226 22.5 µM | KM12 2.75 µM | SK-MEL-2 20.3 µM | NCI-H522 9.25 µM | K562 30.1 µM | LOX IMVI 50 µM | SF-268 2.83 µM

O=C(CC(C(=O)c1ccco1)c1ccsc1)c1ccco1 (stereo not given)
inactive: SK-OV-3 > 100 µM | MCF7 > 100 µM | MDA-MB-435 > 100 µM | SK-MEL-5 > 100 µM | A549 28.8 µM | MDA-MB-231 56.8 µM | HT-29 > 100 µM | A498 > 100 µM | CCRF-CEM > 100 µM | U-251 > 100 µM | SF-539 > 100 µM | MOLT-4 37.4 µM | RPMI-8226 > 100 µM | KM12 > 100 µM | NCI-H522 76.9 µM | K562 78 µM | LOX IMVI > 100 µM | SF-268 > 100 µM

CC(C)=CCC12Cc3ccc(O)cc3C(C(C)CN1)C2C (stereo not given)
inactive: SK-OV-3 > 100 µM | MCF7 81.3 µM | MDA-MB-435 44.9 µM | SK-MEL-5 > 10 µM | A549 > 100 µM | Malme-3M > 100 µM | MDA-MB-231 > 100 µM | HT-29 44.6 µM | A498 50.9 µM | CCRF-CEM 46.8 µM | U-251 83.4 µM | SF-539 72.1 µM | MOLT-4 52 µM | RPMI-8226 37.2 µM | KM12 > 100 µM | K562 34.4 µM | LOX IMVI 42.9 µM | SF-268 > 100 µM
